Results taken from patent publication US11306081B2, “Phenylacetamides as inhibitors of rock” (BRISTOL-MYERS SQUIBB COMPANY, priority 2017, dated 2022).

target: ROCK2 (Homo sapiens (Human), UniProt O75116); assay: ROCK assay (LABCHIP 3000 peptide phosphorylation assay); format: biochemical; settings: 5 μM ATP, 1.5 μM peptide substrate, dose-response
Protocol: The effectiveness of compounds of the present invention as ROCK inhibitors can be determined in a 30 μL assay containing 20 mM HEPES, pH 7.5, 20 mM MgCl2, 0.015% Brij-35, 4 mM DTT, 5 μM ATP and 1.5 μM peptide substrate (FITC-AHA-AKRRRLSSLRA-OH) (SEQ ID No. 1). Compounds were dissolved in DMSO so that the final concentration of DMSO was <2%, and the reaction was initiated with Rho kinase variants. After incubation, the reaction was terminated by the addition of EDTA and the phosphorylated and non-phosphorylated peptides separated using a LABCHIP® 3000 Reader (Caliper Life Sciences). […] Compounds were tested in dose-response format, and the inhibition of kinase activity was calculated at each concentration of compound. The inhibition data were fit using a curve-fitting program to determine the IC50; i.e., the concentration of compound required to inhibit 50% of kinase activity.

Sequence of ROCK2 (O75116 whole entry, species assumed): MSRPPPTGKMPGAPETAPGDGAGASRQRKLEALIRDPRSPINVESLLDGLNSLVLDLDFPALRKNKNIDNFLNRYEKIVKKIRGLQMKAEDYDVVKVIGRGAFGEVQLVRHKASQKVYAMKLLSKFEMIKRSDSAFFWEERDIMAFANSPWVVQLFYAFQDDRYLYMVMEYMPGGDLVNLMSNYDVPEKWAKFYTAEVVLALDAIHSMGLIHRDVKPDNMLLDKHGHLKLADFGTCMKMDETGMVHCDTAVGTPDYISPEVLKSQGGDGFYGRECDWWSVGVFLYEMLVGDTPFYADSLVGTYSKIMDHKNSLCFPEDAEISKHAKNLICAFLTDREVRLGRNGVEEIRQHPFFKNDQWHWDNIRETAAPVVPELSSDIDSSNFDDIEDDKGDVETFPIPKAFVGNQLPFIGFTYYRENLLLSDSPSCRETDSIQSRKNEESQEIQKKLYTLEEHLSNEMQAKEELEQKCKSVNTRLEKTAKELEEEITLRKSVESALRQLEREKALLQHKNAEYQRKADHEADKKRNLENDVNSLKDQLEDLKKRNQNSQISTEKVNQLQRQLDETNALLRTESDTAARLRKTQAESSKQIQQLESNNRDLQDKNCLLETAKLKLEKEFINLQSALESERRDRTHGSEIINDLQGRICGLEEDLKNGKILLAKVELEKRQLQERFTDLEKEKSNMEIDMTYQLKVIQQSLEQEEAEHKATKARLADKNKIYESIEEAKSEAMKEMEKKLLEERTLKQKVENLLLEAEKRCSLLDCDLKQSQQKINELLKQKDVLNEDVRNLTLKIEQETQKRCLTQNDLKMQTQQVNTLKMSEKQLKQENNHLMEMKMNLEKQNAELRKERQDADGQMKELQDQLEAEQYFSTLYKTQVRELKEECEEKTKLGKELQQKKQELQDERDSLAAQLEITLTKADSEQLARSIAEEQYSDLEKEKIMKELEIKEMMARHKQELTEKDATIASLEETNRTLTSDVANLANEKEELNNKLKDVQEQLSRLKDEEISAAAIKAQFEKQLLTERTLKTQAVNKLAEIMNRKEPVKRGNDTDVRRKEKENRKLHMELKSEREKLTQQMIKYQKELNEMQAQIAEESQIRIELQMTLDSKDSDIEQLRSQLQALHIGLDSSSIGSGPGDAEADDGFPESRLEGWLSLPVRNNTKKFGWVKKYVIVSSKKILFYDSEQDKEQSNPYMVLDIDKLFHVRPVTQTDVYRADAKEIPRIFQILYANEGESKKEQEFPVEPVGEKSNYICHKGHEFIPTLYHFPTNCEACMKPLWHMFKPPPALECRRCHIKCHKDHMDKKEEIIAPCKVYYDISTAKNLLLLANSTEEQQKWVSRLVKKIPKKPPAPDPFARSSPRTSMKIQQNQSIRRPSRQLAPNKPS

Row | Compound | IC50
1 | Cc1n[nH]c(C)c1-c1ccc2sc(NC(=O)Cc3ccc(Oc4ncccc4C(N)=O)c(F)c3)nc2c1 [Example 005, 2-(4-(2-((5-(3,5-dimethyl-1H-pyrazol-4-yl)benzo[d]thiazol-2-yl)amino)-2-oxoethyl)-2-fluorophenoxy)nic-otinamide] | 10 nM
2 | Cc1nc2sccn2c1-c1csc(NC(=O)Cc2ccc(Oc3ncccc3C(N)=O)c(Cl)c2)n1 [Example 081, 2-(2-chloro-4-(2-((4-(6-methylimidazo[2,1-b]thiazol-5-yl)thiazol-2-yl)amino)-2-oxoethyl)phenoxy) nicotinamide] | 59 nM
3 | Cc1nc(NC(=O)Cc2ccc(Oc3ncccc3C(N)=O)c(F)c2)sc1-c1ccccn1 [Example 012, 2-(2-fluoro-4-(2-((4-methyl-5-(pyridin-2-yl)thiazol-2-yl)amino)-2-oxoethyl)phenoxy)nic-otinamide] | 38 nM
4 | NC(=O)c1cccnc1Oc1ccc(CC(=O)Nc2nc3cc(C(=O)c4ccccc4)ccc3[nH]2)cc1 [Example 072, 2-(4-(2-((5-benzoyl-1H-benzo[d]imidazol-2-yl)amino)-2-oxoethyl)phenoxy) nicotinamide] | 147 nM
5 | Cc1sc(NC(=O)Cc2ccc(Oc3ncccc3C(N)=O)c(F)c2)nc1-c1ccc(S(=O)(=O)C(C)C)cc1 [Example 048, 2-(2-fluoro-4-(2-((4-(4-(isopropylsulfonyl)phe-nyl)-5-methylthiazol-2-yl)amino)-2-oxoethyl)phenoxy)nico-tinamide] | 112 nM
6 | Cn1cc(-c2ccc3sc(NC(=O)Cc4ccc(Oc5ncccc5C(N)=O)c(F)c4)nc3c2)c(C2CC2)n1 [Example 026, 2-(4-(2-((5-(3-cyclopropyl-1-methyl-1H-pyrazol-4-yl)benzo[d]thiazol-2-yl)amino)-2-oxoethyl)-2-fluorophenoxy)nicotin-amide] | 8 nM
7 | NC(=O)c1ccc2nc(NC(=O)Cc3ccc(Oc4ncccc4C(N)=O)cc3)sc2c1 [Example 066, 2-(2-(4-((3-carbamoylpyridin-2-yl)oxy)phenyl)acet-amido)benzo[d]thi-azole-6-carboxamide] | 830 nM
8 | NC(=O)c1cccnc1Oc1ccc(CC(=O)Nc2nnc(C(F)(F)F)s2)cc1F [Example 091, 2-(2-fluoro-4-(2-oxo-2-((5-(trifluoromethyl)-1,3,4-thiadiazol-2-yl)amino)ethyl)phe-noxy)nicotinamide] | 874 nM
9 | Cc1nn(C)c(-c2ccc3sc(NC(=O)Cc4ccc(Oc5ncccc5C(N)=O)c(F)c4)nc3c2)c1C [Example 027, 2-(2-fluoro-4-(2-oxo-2-((5-(1,3,4-trimethyl-1H-pyrazol-5-yl)benzo[d]thiazol-2-yl)amino)ethyl)phenoxy) nicotinamide] | 5 nM
10 | NC(=O)c1cccnc1Oc1ccc(CC(=O)Nc2ccn(CC(F)(F)F)n2)cc1F [Example 099, 2-(2-fluoro-4-(2-oxo-2-((1-(2,2,2-trifluoroethyl)-1H-pyrazol-3-yl)amino)ethyl)phe-noxy)nicotinamide] | 583 nM
11 | Cn1nc(NC(=O)Cc2ccc(Oc3ncccc3C(N)=O)c(Cl)c2)c2cccnc21 [Example 010, 2-(2-chloro-4-(2-((1-methyl-1H-pyrazolo[3,4-b]pyridin-3-yl)amino)-2-oxoethyl)phenoxy)nicotinamide] | 159 nM
12 | COc1cc(C#N)c2c(c1)CCN2C(=O)Cc1ccc(Oc2ncccc2C(N)=O)cc1 [Example 056, 2-(4-(2-(7-cyano-5-methoxyindolin-1-yl)-2-oxoethyl)phenoxy) nicotinamide] | 1090 nM
13 | Cn1ccc(-c2ccc3sc(NC(=O)Cc4ccc(Oc5ncccc5C(N)=O)c(F)c4)nc3c2)n1 [Example 033, 2-(2-fluoro-4-(2-((5-(1-methyl-1H-pyrazol-3-yl)benzo[d]thiazol-2-yl)amino)-2-oxoethyl)phenoxy)nico-tinamide] | 7 nM
14 | Cn1cc(-c2ccc3sc(NC(=O)Cc4ccc(Oc5ncccc5C(N)=O)c(F)c4)nc3c2)cn1 [Example 035, 2-(2-fluoro-4-(2-((5-(1-methyl-1H-pyrazol-4-yl)benzo[d]thiazol-2-yl)amino)-2-oxoethyl)phenoxy)nico-tinamide] | 10 nM
15 | NC(=O)c1cccnc1Oc1ccc(CC(=O)Nc2nc(-c3cc[nH]c(=O)c3)cs2)cc1F [Example 018, 2-(2-fluoro-4-(2-oxo-2-((4-(2-oxo-1,2-dihydropyridin-4-yl)thiazol-2-yl)amino)ethyl)phenoxy)nicotinamide] | 245 nM
16 | N#Cc1ccc2[nH]c(NC(=O)Cc3ccc(Oc4ncccc4C(N)=O)cc3)nc2c1 [Example 071, 2-(4-(2-((5-cyano-1H-benzo[d]imidazol-2-yl)amino)-2-oxoethyl)phenoxy) nicotinamide] | 621 nM
17 | COc1cccc(-c2nc(NC(=O)Cc3ccc(Oc4ncccc4C(N)=O)c(F)c3)sc2C)n1 [Example 043, 2-(2-fluoro-4-(2-((4-(6-methoxypyridin-2-yl)-5-methylthiazol-2-yl)amino)-2-oxoethyl)phenoxy)nico-tinamide] | 69.6 nM

More lines, now with the values ahead:

Row | IC50 | Compound
18 | 1720 nM | COCCn1c(NC(=O)Cc2ccc(Oc3ncccc3C(N)=O)c(F)c2)nc2ccc(C(N)=O)cc21 [Example 158, 2-(2-(4-((3-carbamoyl-pyridin-2-yl)oxy)-3-fluorophenyl)-acetamido)-1-(2-methoxyethyl)-1H-benzo[d]-imidazole-6-carboxamide]
19 | 12 nM | Cc1sc(NC(=O)Cc2ccc(Oc3ncccc3C(N)=O)c(Cl)c2)nc1-c1cccnc1F [Example 102, 2-(2-chloro-4-(2-((4-(2-fluoropyridin-3-yl)-5-methylthiazol-2-yl)amino)-2-oxoethyl)phenoxy) nicotinamide]
20 | 10 nM | NC(=O)c1cccnc1Oc1ccc(CC(=O)Nc2nc3cc(F)ccc3n2CC2CC2)cc1Cl [Example 174, 2-(2-chloro-4-(2-((1-(cyclo-propylmethyl)-5-fluoro-1H-benzo[d]-imidazol-2-yl)-amino)-2-oxo-ethyl)phenoxy)-nicotinamide]
21 | 127 nM | NC(=O)c1cccnc1Oc1ccc(CC(=O)Nc2nc3c(F)cccn3n2)cc1F [Example 127, 2-(2-fluoro-4-(2-((8-fluoro-[1,2,4]-triazolo[1,5-a]-pyridin-2-yl)amino)-2-oxoethyl)phenoxy)-nicotinamide]
22 | 650 nM | COc1cc(CC(=O)Nc2nc3cc(OCC(C)(C)O)ccc3s2)ccc1Oc1ncccc1C(N)=O [Example 118, 2-(4-(2-((5-(2-hydroxy-2-methylpropoxy)benzo[d]thiazol-2-yl)amino)-2-oxoethyl)-2-methoxyphenoxy)nicotinamide]
23 | 261 nM | NC(=O)c1cccnc1Oc1ccc(CC(=O)Nc2nc(C3CC3)ns2)cc1F [Example 101, 2-(4-(2-((3-cyclopropyl-1,2,4-thiadiazol-5-yl)amino)-2-oxoethyl)-2-fluorophenoxy)nico-tinamide]
24 | 37 nM | NC(=O)c1cccnc1Oc1ccc(CC(=O)Nc2nc3ccccc3n2CC(F)F)cc1F [Example 111, 2-(4-(2-((1-(2,2-difluoroethyl)-1H-benzo[d]imidazol-2-yl)amino)-2-oxoethyl)-2-fluorophenoxy)nicotinamide]
25 | 16 nM | NC(=O)c1cccnc1Oc1ccc(CC(=O)Nc2nc3c(F)cccc3n2CC2CC2)cc1F [Example 161, 2-(4-(2-((1-(cyclopropyl-methyl)-4-fluoro-1H-benzo[d]-imidazol-2-yl)-amino)-2-oxoethyl)-2-fluorophenoxy)-nicotinamide]
26 | 13 nM | Cn1nccc1-c1ccn2nc(NC(=O)Cc3ccc(Oc4ncccc4C(N)=O)c(F)c3)nc2c1 [Example 137, 2-(2-fluoro-4-(2-((7-(1-methyl-1H-pyrazol-5-yl)-[1,2,4]-triazolo[1,5-a]pyridin-2-yl)amino)-2-oxoethyl)-phenoxy) nicotinamide]
27 | 198 nM | NC(=O)c1cccnc1Oc1ccc(CC(=O)Nc2cn3cc(C(F)(F)F)ccc3n2)cc1F [Example 133, 2-(2-fluoro-4-(2-oxo-2-((6-(trifluoro-methyl)imidazo-[1,2-a]pyridin-2-yl)amino)ethyl)-phenoxy)nicotin-amide]
28 | 5 nM | Cn1cc(-c2ccc3nc(NC(=O)Cc4ccc(Oc5ncccc5C(N)=O)c(F)c4)n(CC4CC4)c3c2)cn1 [Example 144, 2-(4-(2-((1-(cyclopropylmethyl)-6-(1-methyl-1H-pyrazol-4-yl)-1H-benzo[d]imidazol-2-yl)amino)-2-oxoethyl)-2-fluorophenoxy)nicotinamide]
29 | 44 nM | NC(=O)c1cccnc1Oc1ccc(CC(=O)Nc2nc3ccc(C(F)(F)F)cc3n2CC2CC2)cc1F [Example 175, 2-(4-(2-((1-(cyclopropyl-methyl)-6-(trifluoro-methyl)-1H-benzo[d]-imidazol-2-yl)amino)-2-oxoethyl)-2-fluorophenoxy)-nicotinamide]
30 | 74 nM | CC(C)(O)COc1ccc2nc(NC(=O)Cc3ccc(Oc4ncccc4C(N)=O)cc3)sc2c1 [Example 109, 2-(4-(2-((6-(2-hydroxy-2-methylpropoxy)benzo[d]thiazol-2-yl)amino)-2-oxoethyl)phenoxy)nicotinamide]
31 | 69 nM | NC(=O)c1cccnc1Oc1ccc(CC(=O)Nc2nc3ccc(C(F)(F)F)cn3n2)cc1F [Example 129, 2-(2-fluoro-4-(2-oxo-2-((6-(trifluoromethyl)-[1,2,4]triazolo-[1,5-a]pyridin-2-yl)amino)ethyl)-phenoxy)nicotin-amide]
32 | 31 nM | NC(=O)c1cccnc1Oc1ccc(CC(=O)Nc2nc3ccc(OCc4ccccc4)cc3n2CC2CC2)cc1F [Example 170, 2-(4-(2-((6-(benzyloxy)-1-(cyclo-propylmethyl)-1H-benzo[d]-imidazol-2-yl)-amino)-2-oxo-ethyl)-2-fluoro-phenoxy)nicotin-amide]
